The values below come from US20210228545A1, “METHODS OF TREATING CONDITIONS RELATED TO THE S1P1 RECEPTOR” (Arena Pharmaceuticals, Inc., priority 2018, published 2021).

The target in data set [1] is T1, OAT1 (Homo sapiens, UniProt Q4U2R8).
T1 construct: expressed in transfected cells; host or cells: HEK293
T1 sequence (Q4U2R8 1-563): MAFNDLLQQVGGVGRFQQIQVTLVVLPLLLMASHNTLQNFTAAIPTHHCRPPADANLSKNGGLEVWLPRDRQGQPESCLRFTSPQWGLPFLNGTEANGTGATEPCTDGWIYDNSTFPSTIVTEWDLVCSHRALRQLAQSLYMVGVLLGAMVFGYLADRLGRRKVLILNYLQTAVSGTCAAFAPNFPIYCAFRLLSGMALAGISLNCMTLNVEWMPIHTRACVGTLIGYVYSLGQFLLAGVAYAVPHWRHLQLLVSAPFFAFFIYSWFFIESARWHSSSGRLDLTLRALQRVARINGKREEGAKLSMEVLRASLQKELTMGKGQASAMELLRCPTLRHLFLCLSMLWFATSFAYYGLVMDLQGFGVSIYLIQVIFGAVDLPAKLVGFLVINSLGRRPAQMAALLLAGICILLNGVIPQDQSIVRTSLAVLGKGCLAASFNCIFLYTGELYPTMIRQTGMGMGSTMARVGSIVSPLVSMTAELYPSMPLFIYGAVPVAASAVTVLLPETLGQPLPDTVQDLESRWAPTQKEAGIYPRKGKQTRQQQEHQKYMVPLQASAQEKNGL
Briefly: Transporter substrate evaluation, HEK293 cells. To be noted: 1 and 10 μM. It is filed as in vitro ADME.

The target of data set [2] is T1, OAT1. Briefly: Transporter inhibition, HEK293 cells. It is filed as in vitro ADME.
The next data set has as its system CYP3A4. Nature of the data set: CYP induction in cultured human hepatocytes. Type of data set: in vitro ADME. To be noted: criteria >2-fold mRNA increase and ≥20% of positive control.
The next data set has as its target P-gp (Homo sapiens, UniProt P08183).
The next data set addresses T2, BCRP (Homo sapiens, UniProt Q9UNQ0).
T2 sequence (Q9UNQ0 1-655): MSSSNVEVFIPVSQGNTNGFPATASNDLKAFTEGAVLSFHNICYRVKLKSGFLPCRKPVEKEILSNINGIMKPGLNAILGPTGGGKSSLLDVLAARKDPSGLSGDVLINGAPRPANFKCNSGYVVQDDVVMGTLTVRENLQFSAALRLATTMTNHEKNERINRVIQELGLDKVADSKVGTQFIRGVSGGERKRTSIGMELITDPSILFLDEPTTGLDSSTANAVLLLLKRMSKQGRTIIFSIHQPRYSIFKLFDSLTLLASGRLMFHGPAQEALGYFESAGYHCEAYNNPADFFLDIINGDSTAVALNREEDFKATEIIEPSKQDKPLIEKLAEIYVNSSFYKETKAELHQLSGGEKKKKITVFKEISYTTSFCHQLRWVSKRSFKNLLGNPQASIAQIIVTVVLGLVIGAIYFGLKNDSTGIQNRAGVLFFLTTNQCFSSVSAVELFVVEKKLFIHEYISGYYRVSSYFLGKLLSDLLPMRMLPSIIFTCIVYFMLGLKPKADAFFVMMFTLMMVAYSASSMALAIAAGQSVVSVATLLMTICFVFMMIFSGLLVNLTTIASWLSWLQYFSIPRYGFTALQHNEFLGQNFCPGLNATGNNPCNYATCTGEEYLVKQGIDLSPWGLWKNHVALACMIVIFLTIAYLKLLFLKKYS
Briefly: Transporter substrate evaluation, MDCKII-BCRP cells. Type of data set: in vitro ADME.

In another data set the target is T3, OATP1B3 (Homo sapiens, UniProt Q9NPD5).
T3 construct: expressed in transfected cells; host or cells: HEK293
T3 sequence (Q9NPD5 1-702): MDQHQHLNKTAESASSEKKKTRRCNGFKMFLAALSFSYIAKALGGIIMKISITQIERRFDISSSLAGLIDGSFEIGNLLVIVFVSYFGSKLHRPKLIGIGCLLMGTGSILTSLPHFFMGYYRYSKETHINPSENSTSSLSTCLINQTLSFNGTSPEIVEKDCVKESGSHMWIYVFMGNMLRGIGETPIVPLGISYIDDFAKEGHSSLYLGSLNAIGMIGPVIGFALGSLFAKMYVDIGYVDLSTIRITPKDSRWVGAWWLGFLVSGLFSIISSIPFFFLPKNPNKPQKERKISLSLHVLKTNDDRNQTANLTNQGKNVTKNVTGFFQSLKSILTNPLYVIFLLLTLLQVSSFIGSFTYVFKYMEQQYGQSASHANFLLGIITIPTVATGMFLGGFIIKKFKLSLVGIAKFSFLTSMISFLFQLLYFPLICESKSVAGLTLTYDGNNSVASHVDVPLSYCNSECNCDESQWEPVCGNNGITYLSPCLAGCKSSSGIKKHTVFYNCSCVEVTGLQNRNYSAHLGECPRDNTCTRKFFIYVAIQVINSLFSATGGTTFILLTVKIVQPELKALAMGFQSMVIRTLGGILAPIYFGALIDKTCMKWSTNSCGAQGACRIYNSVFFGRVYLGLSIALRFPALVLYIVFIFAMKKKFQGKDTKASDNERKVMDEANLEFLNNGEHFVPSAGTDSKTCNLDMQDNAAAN
Briefly: Transporter substrate evaluation, HEK293 cells. Type of data set: in vitro ADME. Conditions: 1 and 10 μM.

“Also recorded” adds a separate entry of the source.

Sequence of P-gp (P08183 whole entry): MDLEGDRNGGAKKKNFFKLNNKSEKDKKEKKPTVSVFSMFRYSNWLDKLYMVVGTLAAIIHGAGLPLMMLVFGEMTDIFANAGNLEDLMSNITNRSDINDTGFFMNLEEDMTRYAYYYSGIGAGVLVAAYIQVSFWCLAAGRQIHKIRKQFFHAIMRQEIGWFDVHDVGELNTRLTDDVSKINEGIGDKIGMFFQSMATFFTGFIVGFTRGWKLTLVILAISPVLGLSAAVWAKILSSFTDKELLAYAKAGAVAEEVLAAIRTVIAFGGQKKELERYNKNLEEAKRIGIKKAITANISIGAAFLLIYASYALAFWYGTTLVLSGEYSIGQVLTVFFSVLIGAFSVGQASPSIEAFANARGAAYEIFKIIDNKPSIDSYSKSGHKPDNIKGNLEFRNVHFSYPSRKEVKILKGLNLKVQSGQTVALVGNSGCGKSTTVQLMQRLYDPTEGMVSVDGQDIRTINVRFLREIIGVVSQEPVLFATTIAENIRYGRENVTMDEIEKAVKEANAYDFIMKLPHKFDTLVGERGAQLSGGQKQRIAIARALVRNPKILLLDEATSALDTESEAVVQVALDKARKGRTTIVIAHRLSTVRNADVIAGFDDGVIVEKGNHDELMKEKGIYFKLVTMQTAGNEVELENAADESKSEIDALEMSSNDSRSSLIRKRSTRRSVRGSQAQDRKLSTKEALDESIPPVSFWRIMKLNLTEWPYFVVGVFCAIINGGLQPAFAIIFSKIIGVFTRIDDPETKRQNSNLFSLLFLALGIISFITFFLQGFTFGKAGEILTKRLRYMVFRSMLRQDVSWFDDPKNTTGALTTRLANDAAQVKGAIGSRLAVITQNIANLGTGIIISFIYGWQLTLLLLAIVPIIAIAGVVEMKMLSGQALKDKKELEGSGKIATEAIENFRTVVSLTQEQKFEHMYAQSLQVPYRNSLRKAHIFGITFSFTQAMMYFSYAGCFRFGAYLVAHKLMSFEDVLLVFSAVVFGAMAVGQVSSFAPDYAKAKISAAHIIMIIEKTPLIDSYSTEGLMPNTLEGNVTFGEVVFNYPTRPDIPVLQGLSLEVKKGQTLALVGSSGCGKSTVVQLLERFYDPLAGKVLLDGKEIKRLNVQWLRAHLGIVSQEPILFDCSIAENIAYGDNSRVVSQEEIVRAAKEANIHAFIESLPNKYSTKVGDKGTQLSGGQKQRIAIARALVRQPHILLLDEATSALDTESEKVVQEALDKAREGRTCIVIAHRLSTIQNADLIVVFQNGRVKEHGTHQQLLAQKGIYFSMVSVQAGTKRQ

Turning to `O=C(O)C[C@H]1CCc2c1[nH]c1ccc(OCc3ccc(C4CCCC4)c(C(F)(F)F)c3)cc21` [Compound 1, (R)-2-(7-(4-cyclopentyl-3-(trifluoromethyl)benzyloxy)-1,2,3,4-tetrahydrocyclopenta[b]indol-3-yl)acetic acid], the “Potential substrate of OAT1” value at OAT1 [1] (HEK293 cells) was “not a substrate of OAT1 and not a substrate and No”. The “Uptake ratio into OAT1-expressing cells” value on OAT1 [1] (absence and presence of probenecid (100 μM)) is “less than two”. In addition, the “Reduction of uptake rate of p-aminohippurate into OAT1-expressing cells (inhibition)” value at OAT1 [2] (1 and 10 μM) is listed as “less than 50%”. Besides, the half-inhibitory concentration (IC50) against OAT1 [2] (HEK293 cells, [3H]-p-aminohippurate (1 μM), 1 and 10 μM tested) was above 10 µM; against P-gp, around 100 µM. In the data set on CYP3A4, the “Induction potential for CYP3A4” value is recorded as “no induction potential; also recorded: not a potential inducer”. Further, at BCRP (1 μM, absence and presence of Ko143 (1 μM)), the “Efflux ratio of Compound 1 across MDCKII-BCRP cells” value is given as “less than two”. Also, on BCRP (human, 10 μM), the efflux ratio at 10 μM was determined as 7.36. For the same compound, the recovery on BCRP (human, MDCKII-BCRP assay) fell in the range of 27 to 48%. In addition, the “Potential substrate of OATP1B3” value at OATP1B3 (HEK293 cells) was “not a substrate of OATP1B3 and not a substrate and No”. Moreover, at OATP1B3 (absence and presence of rifampin), the “Uptake ratio into OATP1B3-expressing cells” value is listed as “less than two”.
